# Results reported in US20250352600A1, “DIETARY SUPPLEMENTS FOR BRAIN HEALTH” (Melaleuca, Inc., priority 2024, published 2025).
# Key:
# Assay type in all cases: in vivo, human
# [1] = Low-Caffeine User Clinical Study, Profile of Mood States (POMS) survey; details: low-caffeine users
# Excerpt: This study included subjective (POMS and product questions) and objective (CNSVS) tests.
# [2] = Moderate-Caffeine User Follow-Up, product questions (statement agreement)
# Excerpt: (§1) The study included subjective tests (POMS and product questions) only. […] There were 7 male and 6 female participants with an average age of 39.5 years.
# [3] = Moderate-Caffeine User Follow-Up, Profile of Mood States (POMS) survey; parameters: Fatigue / Vigor / Confusion / TMD / Tension / Esteem-related Affect: scale not given here; details: moderate-caffeine users; for TMD: total mood disturbance
# Excerpt: as §1
# [4] = Moderate-Dose Caffeine Cohort (mean 338 mg/d), n = 12-13
# [5] = Statement Agreement, Moderate-Dose Caffeine Cohort (mean 338 mg/d), n = 12-13
smiles,measurement,setting,value
"Cn1c(=O)c2c(ncn2C)n(C)c1=O [Caffeine, caffeine]",Anger,"[1]; n = 30, Post",0.90
same,Confusion,"[1]; n = 30, Post",1.20
same,Depression,"[1]; n = 30, Post",0.60
same,Esteem-related Affect,"[1]; n = 30, Post",14.63
same,Fatigue,"[1]; n = 30, Post",2.77
same,Tension,"[1]; n = 30, Post",2.80
same,Vigor,"[1]; n = 30, Post",7.27
same,Anger,"[1]; n = 30, Pre",1.55
same,Confusion,"[1]; n = 30, Pre",2.93
same,Depression,"[1]; n = 30, Pre",1.79
same,Esteem-related Affect,"[1]; n = 30, Pre",13.59
same,Fatigue,"[1]; n = 30, Pre",5.66
same,Tension,"[1]; n = 30, Pre",4.48
same,Vigor,"[1]; n = 30, Pre",5.69
same,TMD,"[1]; total mood disturbance, n = 30, Post",−13.63
same,"I am in a better mood after having taken the product, % Top 2 Box",[2]; [4],42%
same,"I had no trouble recalling [things] after taking the product, % Top 2 Box",[2]; [4],58%
same,"I was better able to focus after taking the product, % Top 2 Box",[2]; [4],58%
same,"I was more alert after taking the product, % Top 2 Box",[2]; [4],58%
same,"The product enhanced my ability to pay attention, % Top 2 Box",[2]; [4],58%
same,"The product improved my energy levels, % Top 2 Box",[2]; [4],67%
same,"I am in a better mood after having taken the product, Scores",[2]; [5],3.33
same,"I had no trouble recalling [things] after taking the product, Scores",[2]; [5],3.67
same,"I was better able to focus after taking the product, Scores",[2]; [5],3.25
same,"I was more alert after taking the product, Scores",[2]; [5],3.67
same,"The product enhanced my ability to pay attention, Scores",[2]; [5],3.50
same,"The product improved my energy levels, Scores",[2]; [5],3.75
same,performance of treatment arms among those with moderate caffeine intake,[2]; moderate-caffeine users,performed better
same,Confusion,"[3]; n = 12-13, Post",1.17 ± 2.92
same,Depression,"[3]; n = 12-13, Post",1.17 ± 4.04
same,Esteem-related Affect,"[3]; n = 12-13, Post",15.92 ± 3.15
same,Fatigue,"[3]; n = 12-13, Post",2.25 ± 3.02
same,Tension,"[3]; n = 12-13, Post",1.83 ± 3.54
same,Fatigue,"[3]; n = 12-13, Post, listed as caffeine",did not relieve
same,Confusion,"[3]; n = 12-13, Pre",2.25 ± 2.38
same,Depression,"[3]; n = 12-13, Pre",1.50 ± 3.45
same,Esteem-related Affect,"[3]; n = 12-13, Pre",14.42 ± 3.23
same,Fatigue,"[3]; n = 12-13, Pre",5.58 ± 4.70
same,Tension,"[3]; n = 12-13, Pre",3.00 ± 2.73
same,Vigor,"[3]; n = 12-13, Pre",4.25 ± 2.93
same,TMD,"[3]; n = 12-13, Post",−17.17 ± 17.69
same,TMD,"[3]; n = 12-13, Pre",−4.92 ± 13.92
